This experiment has as its system L1210 leukemia ip in BDF1 mice, survival T/C. The experiment can be described thus: NCI In Vivo Anticancer Drug Screen. Data for tumor model L1210 Leukemia (intraperitoneal) in B6D2F1 (BDF1) mice. As to conditions: endpoint: mean survival time, higher = longer survival. In a few lines:
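Mice bearing the transplanted tumor received compound or vehicle. Survival of the treated group was divided by that of the vehicle-treated control group to give the ratio.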

Setting [1] is: dose: 100.0 mg/kg/injection, schedule: Q01DX001 (ip), vehicle: saline.
Where [2] appears, read: dose: 200.0 mg/kg/injection, schedule: Q01DX001 (ip), vehicle: saline.
Where [3] appears, read: dose: 400.0 mg/kg/injection, schedule: Q01DX001 (ip), vehicle: saline.
Setting [4] is: dose: 100.0 mg/kg/injection, schedule: Q01DX001 (ip), vehicle: saline with Tween-80.
The mark [5] stands for this setting: dose: 100.0 mg/kg/injection, schedule: Q04DX003 (ip), vehicle: saline with Tween-80.
Setting [6] is: dose: 200.0 mg/kg/injection, schedule: Q01DX001 (ip), vehicle: saline with Tween-80.
The mark [7] stands for this setting: dose: 200.0 mg/kg/injection, schedule: Q04DX003 (ip), vehicle: saline with Tween-80.
The mark [8] stands for this setting: dose: 400.0 mg/kg/injection, schedule: Q01DX001 (ip), vehicle: saline with Tween-80.
Where [9] appears, read: dose: 100.0 mg/kg/injection, schedule: Q01DX009 (ip), vehicle: saline.
The mark [10] stands for this setting: dose: 100.0 mg/kg/injection, schedule: Q01DX009 (ip), vehicle: Klucel (hydroxypropylcellulose) (HPC).
[11] abbreviates: dose: 200.0 mg/kg/injection, schedule: Q01DX009 (ip), vehicle: Klucel (hydroxypropylcellulose) (HPC).
The mark [12] stands for this setting: dose: 50.0 mg/kg/injection, schedule: Q01DX009 (ip), vehicle: saline.
Where [13] appears, read: dose: 50.0 mg/kg/injection, schedule: Q01DX009 (ip), vehicle: saline with Tween-80.
The mark [14] stands for this setting: dose: 100.0 mg/kg/injection, schedule: Q01DX009 (ip), vehicle: saline with Tween-80.
Where [15] appears, read: dose: 200.0 mg/kg/injection, schedule: Q01DX009 (ip), vehicle: saline with Tween-80.
Setting [16] is: dose: 100.0 mg/kg/injection, schedule: Q04DX003 (ip), vehicle: saline.
Where [17] appears, read: dose: 200.0 mg/kg/injection, schedule: Q04DX003 (ip), vehicle: saline.
Setting [18] is: dose: 50.0 mg/kg/injection, schedule: Q04DX003 (ip), vehicle: saline.
Where [19] appears, read: dose: 400.0 mg/kg/injection, schedule: Q04DX003 (ip), vehicle: saline.

SMILES strings stand for the structures. Values joined by “and” are separate entries in the source; they are usually repeats but may differ in a detail not shown here. Identical values can stand only once. Inconclusive results and toxic doses are left out.

`NC1=NN(c2c(Cl)cc(Cl)cc2Cl)C(=O)C1`: the T/C is, setting by setting: under setting [1], 96 % of control; under setting [2], 94 % of control; under setting [3], 100 % of control.

Consider `O=C1c2ccccc2C(=O)c2c1ccc(C1C(=O)c3ccccc3C1=O)c2-c1c(C2C(=O)c3ccccc3C2=O)ccc2c1C(=O)c1ccccc1C2=O`, for which the T/C runs as follows: under setting [1], 95 % of control; under setting [2], 95 % of control; under setting [3], 97 % of control.

`CCOC(=O)C(=O)c1ccc[nH]1`: the T/C reads like this: under setting [4], 114 % of control; under setting [5], 94 % of control; under setting [6], 115 % of control; under setting [7], 101 % of control; under setting [8], 111 % of control; (dose: 400.0 mg/kg/injection, schedule: Q04DX003 (ip), vehicle: saline with Tween-80) 92 % of control.

For `O=C(O)c1cc(Cl)cc2c1-c1ccc(Cl)cc1C2Br` (stereo not given), the T/C is, setting by setting: (dose: 18.7 mg/kg/injection, schedule: Q01DX009 (ip), vehicle: carboxymethylcellulose (CMC)) 96 % of control; (dose: 75.0 mg/kg/injection, schedule: Q01DX001 (ip), vehicle: carboxymethylcellulose (CMC)) 98 % of control; (dose: 150.0 mg/kg/injection, schedule: Q01DX001 (ip), vehicle: carboxymethylcellulose (CMC)) 91 % of control.

As to `CCC(C)C(CCN(CC)CC)(CNC(=O)CN(CC)CC)c1cccc2ccccc12` (stereo not given), the T/C under setting [9] is 97 % of control.

Consider `CCCCOCN1COCC1(C)C`, for which the T/C under setting [5] was 108 % of control and the T/C under setting [7] is 106 % of control.

In the case of `Cc1cccc(Cl)c1NC(=O)Nc1ccc(S(N)(=O)=O)cc1`, the T/C runs as follows: under setting [10], 94 % of control; under setting [11], 102 % of control; (dose: 400.0 mg/kg/injection, schedule: Q01DX009 (ip), vehicle: Klucel (hydroxypropylcellulose) (HPC)) 92 % of control.

With `O=[N+]([O-])c1ccc(NCc2ccccc2)c2nonc12`, the T/C is 113 % of control under setting [12]; 98 % of control under setting [9]; 113 % of control (dose: 200.0 mg/kg/injection, schedule: Q01DX009 (ip), vehicle: saline).

In the case of `CC1CSCC(C)O1` (stereo not given), the T/C under setting [13] was 95 % of control, the T/C under setting [14] is 284 % of control and the T/C under setting [15] is 95 % of control.

For the compound `CCCCN=C(C(=O)NCCCC)c1ccccc1NC(C)=O`, the T/C is, setting by setting: under setting [10], 97 % of control; under setting [11], 86 % of control.

For the compound `N=C(N)SCc1ccc(C(=O)Oc2ccc([N+](=O)[O-])cc2)cc1`, the T/C reads like this: (dose: 25.0 mg/kg/injection, schedule: Q01DX009 (ip), vehicle: saline) 97 % of control; under setting [12], 100 % of control and 103 % of control; under setting [9], 106 % of control; under setting [16], 101 % of control; under setting [17], 98 % of control.

Regarding `CC(C)CC[NH-].CC(C)CC[NH-].[Cl][Pt+2][Cl]`, the T/C was 100 % of control and 105 % of control under setting [18]; 92 % of control and 105 % of control under setting [16]; 103 % of control and 117 % of control under setting [17]; 97 % of control and 88 % of control under setting [19].

`CSCS(C)=O` (stereo not given): the T/C is, setting by setting: under setting [16], 104 % of control; under setting [17], 103 % of control; under setting [19], 103 % of control.

For the compound `C=C(C)COc1ccc(C(=O)c2ccccc2)cc1`, the T/C is, setting by setting: (dose: 100.0 mg/kg/injection, schedule: Q04DX002 (ip), vehicle: Klucel (hydroxypropylcellulose) (HPC)) 103 % of control; (dose: 200.0 mg/kg/injection, schedule: Q04DX002 (ip), vehicle: Klucel (hydroxypropylcellulose) (HPC)) 100 % of control; (dose: 400.0 mg/kg/injection, schedule: Q04DX002 (ip), vehicle: Klucel (hydroxypropylcellulose) (HPC)) 94 % of control.

`Cc1ccc2cc(-c3ccc(C4CCCCC4)cc3)c(N=O)n2c1`: the T/C reads like this: (dose: 50.0 mg/kg/injection, schedule: Q01DX001 (ip), vehicle: carboxymethylcellulose (CMC)) 93 % of control; (dose: 100.0 mg/kg/injection, schedule: Q01DX001 (ip), vehicle: carboxymethylcellulose (CMC)) 96 % of control; (dose: 200.0 mg/kg/injection, schedule: Q01DX001 (ip), vehicle: carboxymethylcellulose (CMC)) 90 % of control; (dose: 400.0 mg/kg/injection, schedule: Q01DX001 (ip), vehicle: carboxymethylcellulose (CMC)) 90 % of control.

`CC(=O)N1CCC(CC[P+](c2ccccc2)(c2ccccc2)c2ccccc2)CC1`: the T/C runs as follows: (dose: 12.5 mg/kg/injection, schedule: Q04DX003 (ip), vehicle: saline) 101 % of control; (dose: 25.0 mg/kg/injection, schedule: Q04DX003 (ip), vehicle: saline) 96 % of control; under setting [18], 93 % of control.

With `O=[N+]([O-])c1ccc(O)cc1`, the T/C runs as follows: (dose: 12.5 mg/kg/injection, schedule: Q04DX003 (ip), vehicle: saline + alcohol) 103 % of control; (dose: 25.0 mg/kg/injection, schedule: Q04DX003 (ip), vehicle: saline + alcohol) 100 % of control; (dose: 50.0 mg/kg/injection, schedule: Q04DX003 (ip), vehicle: saline + alcohol) 108 % of control; under setting [1], 113 % of control; (dose: 100.0 mg/kg/injection, schedule: Q04DX002 (ip), vehicle: saline with Tween-80) 102 % of control; under setting [2], 101 % of control. The T/C (dose: 200.0 mg/kg/injection, schedule: Q04DX002 (ip), vehicle: saline with Tween-80) is 91 % of control.

As for `CSc1ccc(SCCOC(=O)Nc2ccc(Cl)cc2Cl)cc1`, the T/C is, setting by setting: under setting [13], 91 % of control; under setting [14], 93 % of control; under setting [15], 98 % of control.

Consider `NC(N)=N/N=C\c1ccc(CCC(=O)O)cc1`, for which the T/C (dose: 15.0 mg/kg/injection, schedule: Q01DX Z (ip), vehicle: carboxymethylcellulose (CMC)) was 97 % of control; the T/C (dose: 30.0 mg/kg/injection, schedule: Q01DX Z (ip), vehicle: carboxymethylcellulose (CMC)) is 97 % of control; the T/C (dose: 60.0 mg/kg/injection, schedule: Q01DX Z (ip), vehicle: carboxymethylcellulose (CMC)) is 101 % of control; the T/C (dose: 120.0 mg/kg/injection, schedule: Q01DX Z (ip), vehicle: carboxymethylcellulose (CMC)) was 97 % of control; the T/C (dose: 120.0 mg/kg/injection, schedule: Q01DX Z (oral), vehicle: carboxymethylcellulose (CMC)) was 113 % of control; the T/C (dose: 240.0 mg/kg/injection, schedule: Q01DX Z (oral), vehicle: carboxymethylcellulose (CMC)) was 112 % of control. Besides, the T/C is, setting by setting: (dose: 480.0 mg/kg/injection, schedule: Q01DX Z (oral), vehicle: carboxymethylcellulose (CMC)) 109 % of control; (dose: 960.0 mg/kg/injection, schedule: Q01DX Z (oral), vehicle: carboxymethylcellulose (CMC)) 109 % of control.

In the case of `O=c1ccc2ccccc2[nH]1.[Mn]`, the T/C runs as follows: (dose: 5.0 mg/kg/injection, schedule: Q01DX001 (ip), vehicle: carboxymethylcellulose (CMC)) 95 % of control; (dose: 10.0 mg/kg/injection, schedule: Q01DX001 (ip), vehicle: carboxymethylcellulose (CMC)) 95 % of control; (dose: 20.0 mg/kg/injection, schedule: Q01DX001 (ip), vehicle: carboxymethylcellulose (CMC)) 97 % of control; (dose: 40.0 mg/kg/injection, schedule: Q01DX001 (ip), vehicle: carboxymethylcellulose (CMC)) 97 % of control.

Consider `CCOC(=O)CCNC1CCCCC1`, for which the T/C was 96 % of control (dose: 100.0 mg/kg/injection, schedule: Q01DX Z (ip), vehicle: methylcellulose (MC)) and 94 % of control (dose: 200.0 mg/kg/injection, schedule: Q01DX Z (ip), vehicle: methylcellulose (MC)).

As to `C/C(=C\Cl)CN(C)S(=O)(=O)c1ccc(Br)cc1`, the T/C is, setting by setting: under setting [4], 100 % of control and 98 % of control; under setting [10], 94 % of control; under setting [6], 94 % of control and 95 % of control; under setting [11], 89 % of control; under setting [8], 96 % of control and 98 % of control.

The record behind these values is PubChem BioAssay AID248 (DTP/NCI, 2004).
